Patent US5238962A, “Benzamide derivatives” (Hoffmann-La Roche Inc., priority 1983, dated 1993)

Assays:
[1] = molecular target: T1, monoamine oxidase (MAO) (Rattus norvegicus, UniProt P19643); assay: MAO inhibiting activity in homogenates of brain and liver of rats after oral administration (phenethylamine as substrate); type: in vivo; conditions: 2 h, p.o. in rats, killed two hours after administration, homogenates of the brain and the liver, phenethylamine 2.10^-5 mol.1^-1 as substrate
T1 construct: from tissue; host or cells: rat brain and liver homogenates
T1 sequence (P19643 1-520): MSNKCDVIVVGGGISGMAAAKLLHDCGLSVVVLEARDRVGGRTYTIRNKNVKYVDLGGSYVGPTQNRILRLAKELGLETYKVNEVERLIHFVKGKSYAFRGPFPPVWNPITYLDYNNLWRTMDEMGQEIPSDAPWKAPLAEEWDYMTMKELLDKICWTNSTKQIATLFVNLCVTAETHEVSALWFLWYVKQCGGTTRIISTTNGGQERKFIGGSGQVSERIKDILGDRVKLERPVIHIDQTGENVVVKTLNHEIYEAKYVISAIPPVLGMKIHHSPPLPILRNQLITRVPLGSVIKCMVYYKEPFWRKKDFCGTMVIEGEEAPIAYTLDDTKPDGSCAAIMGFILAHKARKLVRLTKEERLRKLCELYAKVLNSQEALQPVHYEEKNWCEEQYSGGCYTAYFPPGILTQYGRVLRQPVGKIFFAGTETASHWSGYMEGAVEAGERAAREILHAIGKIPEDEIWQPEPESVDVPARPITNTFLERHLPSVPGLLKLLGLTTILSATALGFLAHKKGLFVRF
Procedure: The MAO inhibiting activity of the compounds of formula I and their pharmaceutically acceptable addition salts can be determined using standard methods. Thus, the substances to be tested were administered orally to rats. Two hours thereafter the animals were killed and the MAO inhibiting activity was measured in homogenates of the brain and the liver according to the method described in Biochem. Pharmacol. 12 (1963) 1439-1441, but using phenethylamine (2.10^-5 mol. 1^-1) in place of tyramine as the substrate.

[2] = toxicity (LD50, p.o. in mice); conditions: mouse, in vivo, po

NCCNC(=O)c1ccccc1 [N-(2-Aminoethyl)benzamide]
ED50 [1]: 20 µmol/kg
LD50 [2]: > 5000 mg/kg

NCCNC(=O)c1ccc(Cl)c(Cl)c1 [N-(2-Aminoethyl)-3,4-dichlorobenzamide, N-(2-aminoethyl)-3,4-dichlorobenzamide]
ED50 [1]: 10.3 µmol/kg
LD50 [2]: 1000 to 2000 mg/kg

NCCNC(=O)c1ccc(Cl)cc1Cl [N-(2-Aminoethyl)-2,4-dichlorobenzamide, N-(2-aminoethyl)-2,4-dichlorobenzamide]
ED50 [1]: 1.5 µmol/kg
LD50 [2]: 625 to 1250 mg/kg

NCCNC(=O)c1ccc(Br)cc1 [N-(2-Aminoethyl)-p-bromobenzamide]
ED50 [1]: 4 µmol/kg
LD50 [2]: 500 to 1000 mg/kg

NCCNC(=O)c1ccc(F)cc1 [N-(2-Aminoethyl)-p-fluorobenzamide]
ED50 [1]: 4 µmol/kg
LD50 [2]: > 5000 mg/kg

NCCNC(=O)c1ccc(Cl)cc1 [N-(2-Aminoethyl)-p-chlorobenzamide]
LD50 [2]: 1000 to 2000 mg/kg
